Source: ChEMBL document CHEMBL5365497, “Developing Novel Coumarin-Containing Azoles Antifungal Agents by the Scaffold Merging Strategy for Treating Azole-Resistant Candidiasis” (J Med Chem, 2023)
≈ marks a conversion by molar mass, not a printed value. Calls of active or inactive are those of the source. The calls are words filed in the database; no cut-off is given here.

Key:
[1] = molecular target: T1, Lanosterol 14-alpha demethylase (Candida albicans (strain SC5314 / ATCC MYA-2876) (Yeast), UniProt P10613); test: Inhibition of CYP51 in Candida albicans SC5314 assessed as increase in eburicol level at 0.03125 ug/ml incubated for 24 hrs by GC-MS analysis; conditions: at 0.03125 µg/mL
Candida albicans [2] = test: Antifungal activity against Candida albicans CPCC400616 assessed as reduction in EFG1 expression at 2 ug/ml incubated for 12 hrs by RT-PCR analysis; assay type: functional, organism-based; conditions: dose 2.0 µg/ml
Candida albicans [3] = test: Antibiofilm activity against Candida albicans CPCC400616 incubated for 24 hrs by XTT reduction assay; assay type: functional, organism-based; conditions: dose <= 128.0 µg/ml
Candida albicans [4] = test: Antifungal activity against fluconazole-resistant Candida albicans 904 assessed as decrease in CDR2 expression at 16 ug/ml measured after 16 hrs by RT-PCR analysis; assay type: functional, organism-based; conditions: dose 16.0 µg/ml
Candida albicans [5] = test: Antifungal activity against fluconazole-resistant Candida albicans 904 assessed as reduction in CPH1 expression at 16 ug/ml incubated for 12 hrs by RT-PCR analysis; assay type: functional, organism-based; conditions: dose 16.0 µg/ml
[6] = Stability in mouse plasma assessed as half life at 1 uM measured for 180 mins by LC-MS/MS analysis; assay type: ADME, cell-free
Pichia kudriavzevii = test: Antifungal activity against Pichia kudriavzevii assessed as fungal growth inhibition by CLSI based microdilution method; assay type: functional
Candida albicans [7] = test: Antifungal activity against fluconazole-resistant Candida albicans 632 assessed as fungal growth inhibition by CLSI based microdilution method; assay type: functional
Candida albicans [8] = test: Antifungal activity against Candida albicans CPCC400616 assessed as reduction in ALS3 expression at 2 ug/ml incubated for 12 hrs by RT-PCR analysis; assay type: functional, organism-based; conditions: dose 2.0 µg/ml
Candida albicans [9] = test: Antifungal activity against fluconazole-resistant Candida albicans 17# assessed as fungal growth inhibition by CLSI based microdilution method; assay type: functional
Candida albicans [10] = test: Antifungal activity against Candida albicans CPCC400616 assessed as fungal growth inhibition by CLSI based microdilution method; assay type: functional
Candida albicans [11] = test: Antifungal activity against fluconazole-resistant Candida albicans CaR assessed as fungal growth inhibition by CLSI based microdilution method; assay type: functional
Candida albicans [12] = test: Antifungal activity against fluconazole-resistant Candida albicans 904 assessed as decrease in CDR1 expression at 16 ug/ml measured after 16 hrs by RT-PCR analysis; assay type: functional, organism-based; conditions: dose 16.0 µg/ml
Nakaseomyces glabratus = test: Antifungal activity against Candida glabrata assessed as fungal growth inhibition by CLSI based microdilution method; assay type: functional
Candida albicans [13] = test: Antifungal activity against fluconazole-resistant Candida albicans 904 assessed as decrease in MDR1 expression at 16 ug/ml measured after 16 hrs by RT-PCR analysis; assay type: functional, organism-based; conditions: dose 16.0 µg/ml
Candida albicans [14] = test: Antifungal activity against Candida albicans CPCC400616 assessed as reduction in CPH1 expression at 2 ug/ml incubated for 12 hrs by RT-PCR analysis; assay type: functional, organism-based; conditions: dose 2.0 µg/ml
[15] = molecular target: T1, Lanosterol 14-alpha demethylase; test: Inhibition of CYP51 in Candida albicans SC5314 assessed as increase in lanosterol level at 0.03125 ug/ml incubated for 24 hrs by GC-MS analysis; conditions: at 0.03125 µg/mL
[16] = Cytotoxicity against mouse J774.A1 cells assessed as cell growth inhibition by MTT assay; assay type: toxicity, cell-based
Candida albicans [17] = test: Antifungal activity against fluconazole-resistant Candida albicans 904 assessed as fungal growth inhibition by CLSI based microdilution method; assay type: functional
Candida albicans [18] = test: Antifungal activity against Candida albicans SC5314 assessed as fungal growth inhibition by CLSI based microdilution method; assay type: functional
Candida parapsilosis = test: Antifungal activity against Candida parapsilosis assessed as fungal growth inhibition by CLSI based microdilution method; assay type: functional; conditions: Lodderomyces parapsilosis
Candida albicans [19] = test: Antifungal activity against fluconazole-resistant Candida albicans 904 assessed as decrease in ERG11 expression at 16 ug/ml measured after 16 hrs by RT-PCR analysis; assay type: functional, organism-based; conditions: dose 16.0 µg/ml
Candida albicans [20] = test: Antifungal activity against fluconazole-resistant Candida albicans 904 assessed as inhibition of yeast to hypha morphological transition at 16 ug/ml incubated for 4 hrs by inverted microscopy; assay type: functional, organism-based; conditions: dose 16.0 µg/ml
[21] = Metabolic stability in mouse liver microsomes assessed as half life incubated for 5 to 60 mins by LC-MS/MS analysis; assay type: ADME, Microsome; conditions: time 5-60 min
Candida albicans [22] = test: Induction of ROS production in fluconazole-resistant Candida albicans 904 at 64 ug/ml incubated for 30 mins by fluorescence microscopy; assay type: functional, organism-based; conditions: dose 64.0 µg/ml
Candida albicans [23] = test: Antifungal activity against fluconazole-resistant Candida albicans 904 assessed as reduction in ALS3 expression at 16 ug/ml incubated for 12 hrs by RT-PCR analysis; assay type: functional, organism-based; conditions: dose 16.0 µg/ml
Candida albicans [24] = test: Antifungal activity against Candida albicans CPCC400616 assessed as inhibition of yeast to hypha morphological transition at 2 ug/ml incubated for 4 hrs by inverted microscopy; assay type: functional, organism-based; conditions: dose 2.0 µg/ml
Candida albicans [25] = test: Antibiofilm activity against fluconazole-resistant Candida albicans 904 incubated for 24 hrs by XTT reduction assay; assay type: functional, organism-based; conditions: dose <= 128.0 µg/ml
[26] = molecular target: T1, Lanosterol 14-alpha demethylase; test: Inhibition of CYP51 in Candida albicans SC5314 assessed as ergosterol level at 0.03125 ug/ml incubated for 24 hrs by GC-MS analysis (reference value: 97.58 %); set-up: scale not given: the % may be the effect or the level left; conditions: at 0.03125 µg/mL
Candida albicans [27] = test: Antifungal activity against fluconazole-resistant Candida albicans 904 assessed as reduction in TEC1 expression at 16 ug/ml incubated for 12 hrs by RT-PCR analysis; assay type: functional, organism-based; conditions: dose 16.0 µg/ml
[28] = molecular target: T1, Lanosterol 14-alpha demethylase; test: Inhibition of CYP51 in Candida albicans SC5314 assessed as increase in obtusifoliol level at 0.03125 ug/ml incubated for 24 hrs by GC-MS analysis; conditions: at 0.03125 µg/mL
Candida tropicalis = test: Antifungal activity against Candida tropicalis assessed as fungal growth inhibition by CLSI based microdilution method; assay type: functional
Candida albicans [29] = test: Antifungal activity against fluconazole-resistant Candida albicans 904 assessed as reduction in EFG1 expression at 16 ug/ml incubated for 12 hrs by RT-PCR analysis; assay type: functional, organism-based; conditions: dose 16.0 µg/ml
[30] = Stability in mouse plasma assessed as compound remaining at 1 uM measured for 180 mins by LC-MS/MS analysis; assay type: ADME, cell-free; conditions: read-out: Stability
Candida albicans [31] = test: Antifungal activity against Candida albicans CPCC400616 assessed as reduction in TEC1 expression at 2 ug/ml incubated for 12 hrs by RT-PCR analysis; assay type: functional, organism-based; conditions: dose 2.0 µg/ml
Candida albicans [32] = test: Antifungal activity against fluconazole-resistant Candida albicans 901 assessed as fungal growth inhibition by CLSI based microdilution method; assay type: functional
Cryptococcus neoformans = test: Antifungal activity against Cryptococcus neoformans assessed as fungal growth inhibition by CLSI based microdilution method; assay type: functional
[33] = Cytotoxicity against human MRC5 cells assessed as cell growth inhibition by MTT assay; assay type: toxicity, cell-based

T1 sequence (P10613 whole entry): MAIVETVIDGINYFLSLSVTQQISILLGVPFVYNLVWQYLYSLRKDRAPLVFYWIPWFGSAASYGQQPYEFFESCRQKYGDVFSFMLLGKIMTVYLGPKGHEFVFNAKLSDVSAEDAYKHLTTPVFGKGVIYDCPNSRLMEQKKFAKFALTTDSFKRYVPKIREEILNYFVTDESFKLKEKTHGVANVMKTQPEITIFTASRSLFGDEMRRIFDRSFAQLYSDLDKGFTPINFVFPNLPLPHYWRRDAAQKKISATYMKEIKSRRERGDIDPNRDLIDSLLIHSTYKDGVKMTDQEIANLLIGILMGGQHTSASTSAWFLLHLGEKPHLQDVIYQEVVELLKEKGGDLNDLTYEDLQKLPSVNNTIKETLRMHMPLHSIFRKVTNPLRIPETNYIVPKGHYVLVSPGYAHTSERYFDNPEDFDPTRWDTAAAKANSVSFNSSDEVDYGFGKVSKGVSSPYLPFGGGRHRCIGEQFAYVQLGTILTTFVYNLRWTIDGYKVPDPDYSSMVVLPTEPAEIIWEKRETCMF

With `O=c1oc2ccccc2cc1COC(Cn1ccnc1)c1ccc(Cl)cc1Cl` (stereo not given) the “inhibition (INH)” value [1] was “Active”, the Activity (Candida albicans [2]) was “Active” and the Activity (Candida albicans [3]) was “Dose-Dependent Effect”. For the same molecule, the Activity (Candida albicans [4]) was “Active”, the Activity (Candida albicans [5]) was “Active” and the half-life at 1 µM [6] was 34 min. The MIC (Pichia kudriavzevii) was 0.25 µg/mL (≈ 0.602 µM), the MIC (Candida albicans [7]) was 8 µg/mL (≈ 19.3 µM) and the Activity (Candida albicans [8]) was “Active”. The MIC (Candida albicans [9]) was 8 µg/mL (≈ 19.3 µM), the MIC (Candida albicans [10]) was 0.06 µg/mL (≈ 0.144 µM) and the MIC (Candida albicans [11]) was 0.5 µg/mL (≈ 1.2 µM). For the same molecule, the Activity (Candida albicans [12]) was “Active”, the MIC (Nakaseomyces glabratus) was 1 µg/mL (≈ 2.41 µM) and the Activity (Candida albicans [13]) was “Active”. The Activity (Candida albicans [14]) was “Active”, the “inhibition (INH)” value [15] was “Active” and the IC50 [16] was 24.4 µM. The MIC (Candida albicans [17]) was 2 µg/mL (≈ 4.82 µM), the MIC (Candida albicans [18]) was 0.03 µg/mL (≈ 0.0722 µM) and the MIC (Candida parapsilosis) was < 0.25 µg/mL. The Activity (Candida albicans [19]) was “Active”, the inhibition (Candida albicans [20]) was “Active” and the half-life [21] was 2.8 min. For the same molecule, the Activity (Candida albicans [22]) was “Active”, the Activity (Candida albicans [23]) was “Active” and the inhibition (Candida albicans [24]) was “Active”. For the same molecule, the Activity (Candida albicans [25]) was “Dose-Dependent Effect”, the Activity [26] was 16.17% and the Activity (Candida albicans [27]) was “Active”. The “inhibition (INH)” value [28] was “Active”, the MIC (Candida tropicalis) was 0.5 µg/mL (≈ 1.2 µM) and the Activity (Candida albicans [29]) was “Active”. For the same molecule, the remaining at 3 h, 1 µM [30] was 2.2%, the Activity (Candida albicans [31]) was “Active” and the MIC (Candida albicans [32]) was 4 µg/mL (≈ 9.63 µM). The MIC (Cryptococcus neoformans) was 0.015 µg/mL (≈ 0.0361 µM).

For `O=c1ccc2cc(COC(Cn3ccnc3)c3ccc(Cl)cc3Cl)ccc2o1` (stereo not given), the “inhibition (INH)” value [1] was “Active”, the Activity (Candida albicans [2]) was “Active” and the Activity (Candida albicans [3]) was “Dose-Dependent Effect”. For the same molecule, the Activity (Candida albicans [4]) was “Active”, the Activity (Candida albicans [5]) was “Active” and the half-life at 1 µM [6] was > 360 min. The MIC (Pichia kudriavzevii) was 0.5 µg/mL (≈ 1.2 µM), the MIC (Candida albicans [7]) was 16 µg/mL (≈ 38.5 µM) and the Activity (Candida albicans [8]) was “Active”. It also gave an MIC (Candida albicans [9]) of 1 µg/mL (≈ 2.41 µM), an MIC (Candida albicans [10]) of 0.06 µg/mL (≈ 0.144 µM) and an MIC (Candida albicans [11]) of 0.5 µg/mL (≈ 1.2 µM). For the same molecule, the Activity (Candida albicans [12]) was “Active”, the MIC (Nakaseomyces glabratus) was 0.25 µg/mL (≈ 0.602 µM) and the Activity (Candida albicans [13]) was “Active”. For the same molecule, the Activity (Candida albicans [14]) was “Active”, the “inhibition (INH)” value [15] was “Active” and the IC50 [16] was 24.4 µM. The MIC (Candida albicans [17]) was 8 µg/mL (≈ 19.3 µM), the MIC (Candida albicans [18]) was 0.03 µg/mL (≈ 0.0722 µM) and the MIC (Candida parapsilosis) was < 0.25 µg/mL. For the same molecule, the Activity (Candida albicans [19]) was “Active”, the inhibition (Candida albicans [20]) was “Active” and the half-life [21] was 6.09 min. The Activity (Candida albicans [22]) was “Active”, the Activity (Candida albicans [23]) was “Active” and the inhibition (Candida albicans [24]) was “Active”. The IC50 [33] was 78.2 µM, the Activity (Candida albicans [25]) was “Dose-Dependent Effect” and the Activity [26] was 0.99%. The Activity (Candida albicans [27]) was “Active”, the “inhibition (INH)” value [28] was “Active” and the MIC (Candida tropicalis) was < 0.25 µg/mL. The Activity (Candida albicans [29]) was “Active”, the remaining at 3 h, 1 µM [30] was 98.7% and the Activity (Candida albicans [31]) was “Active”. The MIC (Candida albicans [32]) was 32 µg/mL (≈ 77.1 µM) and the MIC (Cryptococcus neoformans) was 4 µg/mL (≈ 9.63 µM).
